Test results as given in patent publication US8192925B2, “Polypeptides having antimicrobial activity and polynucleotides encoding same” (Novozymes Adenium Biotech A/S, priority 2004, dated 2012).

Assays:
Assay in all cases: Microdilution MIC assay (NCCLS/CLSI guidelines)
Assay type in all cases: cell-based
Conditions in all cases: tested 0.06-32 μg/ml
[1] = system: Streptococcus pneumoniae, ATCC 49619
Method: (§1) Purified Eurocin was evaluated for antimicrobial activity in a microdillution assay. The
(§2) Minimal Inhibitory Concentration (MIC) was determined following the NCCLS/CLSI guidelines from CLSI (Clinical and Laboratory Standards Institute).
(§3) Eurocin was tested at the following concentrations: 32; 16; 8; 4; 2; 1; 0.50; 0.25; 0.13; and 0.06 μg/ml.

[2] = system: Streptococcus pyogenes, ATCC 12344
Method: as §1, §2, §3

[3] = system: Enterococcus faecium, ATCC 49624
Method: as §1, §2, §3

[4] = system: Staphylococcus carnosus, ATCC 51365
Method: as §1, §2, §3

[5] = system: Micrococcus luteus, ATCC 9341
Method: as §1, §2, §3

[6] = system: Staphylococcus aureus, ATCC 29213
Method: as §1, §2, §3

[7] = system: Staphylococcus epidermidis, ATCC 12228
Method: as §1, §2, §3

## Eurocin: antimicrobial polypeptide shown as amino acids 1 to 42 of SEQ ID NO:2, from Eurotium amstelodami, expressed in Aspergillus oryzae (MHFTKVSTILFTIFAAGIMAAPTEGVREEAAPGQEVYPDEPP; listed as Eurotium amstelodami)
[1]
  MIC: 0.25 µg/mL
[2]
  MIC: 0.13 µg/mL
[3]
  MIC: 16 µg/mL
[4]
  MIC: 8 µg/mL
[5]
  MIC: 0.5 µg/mL
[6]
  MIC: 16 µg/mL
[7]
  MIC: 16 µg/mL
